The values that follow come from PMC9863562, “Design, Synthesis, and Biological Evaluation of 2-Mercaptobenzoxazole Derivatives as Potential Multi-Kinase Inhibitors” (Pharmaceuticals, 2023).

Data set [1] has as its system HepG2 cells (hepatocellular carcinoma). In words: MTT cytotoxicity assay, HepG2. In kind it is cell-based. Conditions: Homo sapiens, HepG2, 24 h, 24 h treatment, read-out: In Vitro Cytotoxicity IC50 HepG2. From the text: (§1) The in vitro cytotoxicity for the final target compounds, 4(a–d), 5(a–f), and 6(a–b), was preliminarily evaluated via the MTT colorimetric assay against a panel of four human cell lines, namely, the hepatocellular carcinoma (HepG2), mammary gland (MCF-7), breast cancer (MDA-MB-231) and epithelioid cervix carcinoma (HeLa).
(§2) The cytotoxicity of the target hybrids was examined by an MTT assay against HepG2, HeLa, MCF-7, and MDA-MB-231. At first, the RPMI-1640 medium with 10% fetal bovine serum was used to cultivate the cell lines. Then, antibiotics (penicillin (100 units/mL) and streptomycin (100 µg/mL)) were added in a 37 °C incubator in 5% CO2. The cell lines were seeded in a 96-well plate at a density of 1.0 × 10^4 cells/well at 37 °C under 5% CO2 for 48 h. After incubation, the cells were treated with various concentrations of the synthesized compounds and incubated for an additional 24 h. Following the drug treatment, 20 µL of 5 mg/mL MTT solution was added and incubated for 4 h. To dissolve the purple formazan that had formed, 100 µL dimethyl sulfoxide (DMSO) was added to each well. At a wavelength of 570 nm, the colorimetric assay was recorded and measured, using a plate reader BioTek EXL 800 (Agilent Technologies, Inc., Santa Clara, CA, USA). The percentage of relative cell viability was counted using the following formula (A570 of handled specimens/A570 of the unhandled specimen), multiplied by 100. The results of the cytotoxicity value were presented as the median growth inhibitory concentration (IC50) of the reagents compared to the control.

The test system of data set [2] is MCF-7 cells (mammary gland cancer). In words: MTT cytotoxicity assay, MCF-7. In kind it is cell-based. Conditions: Homo sapiens, MCF7, 24 h treatment, read-out: In Vitro Cytotoxicity IC50 MCF-7. The method, then: (§3) After incubation, the cells were treated with various concentrations of the synthesized compounds and incubated for an additional 24 h. Following the drug treatment, 20 µL of 5 mg/mL MTT solution was added and incubated for 4 h. To dissolve the purple formazan that had formed, 100 µL dimethyl sulfoxide (DMSO) was added to each well. […] The percentage of relative cell viability was counted using the following formula (A570 of handled specimens/A570 of the unhandled specimen), multiplied by 100.
For orientation: Tetrazolium dyes change colour on reduction, which living cells bring about.

For data set [3], the system named is MDA-MB-231 cells (breast cancer). In words: MTT cytotoxicity assay, MDA-MB-231. The conditions noted are these: Homo sapiens, 24 h treatment, read-out: In Vitro Cytotoxicity IC50 MDA-MB-231. Type of data set: cell-based. The protocol: as §3
Data set [4] concerns HeLa cells (epithelioid cervix carcinoma). Description: MTT cytotoxicity assay, HeLa. In kind it is cell-based. The conditions noted are these: Homo sapiens, 24 h treatment, read-out: In Vitro Cytotoxicity IC50 Hela. The protocol:
as §3

The test system of data set [5] is HepG2, MCF-7, MDA-MB-231 and HeLa cell lines. Description: MTT cytotoxicity assay, panel of four cell lines. Conditions: Homo sapiens, range over HepG2, MCF-7, MDA-MB-231, HeLa, read-out: IC50 values, range over the tested cell lines. Type of data set: cell-based.
Description: as §1, §2

For orientation: IC50 means the concentration needed to halve the response being measured. In general, melting point refers to the temperature of the solid-liquid transition. On to `O=C(CSc1nc2ccccc2o1)NN=Cc1ccc(Cl)c(Cl)c1` (mixture of isomers) [Compound 4a, (E/Z)-N′-(3,4-dichlorobenzylidene)-2-(benzo[d]oxazol-2-ylthio)acetohydrazide], for which the melting point lay within 193 to 195 °C. In addition, in data set [1], the IC50 came out at 81.2 ± 3.7 µM. The IC50 in data set [2] stood at 74.2 ± 3.5 µM. The IC50 in data set [3] was 75.5 ± 3.6 µM. In data set [4], the IC50 worked out at 67.6 ± 3.4 µM.

Take `O=C(CSc1nc2ccccc2o1)NN=Cc1ccc(OC(F)(F)F)cc1` (mixture of isomers) [Compound 4b, (E/Z)-N′-(4-(trifluoromethoxy)benzylidene)-2-(benzo[d]oxazol-2-ylthio)acetohydrazide]: the melting point is 154 to 156 °C. In addition, the IC50 in data set [1] was 13.1 ± 1.1 µM. In addition, the IC50 in data set [2] stood at 15.2 ± 1.2 µM. For the same compound, the IC50 in data set [3] came to 9.72 ± 0.7 µM. In data set [4], the IC50 came out at 19.3 ± 1.6 µM.

Consider `N#Cc1ccc(C=NNC(=O)CSc2nc3ccccc3o2)cc1` (mixture of isomers) [Compound 4c, (E/Z)-N′-(4-cyanobenzylidene)-2-(benzo[d]oxazol-2-ylthio)acetohydrazide], for which the melting point fell in the range of 246 to 248 °C. In data set [1], the IC50 was 34.5 ± 2.2 µM. The IC50 in data set [2] amounted to 38.6 ± 2.5 µM. Besides, the IC50 in data set [3] was found to be 21.1 ± 1.6 µM. The IC50 in data set [4] turned out to be 35.2 ± 2.5 µM.

As to `COc1cc(C=NNC(=O)CSc2nc3ccccc3o2)ccc1O` (mixture of isomers) [Compound 4d, (E/Z)-N′-(4-hydroxy-3-methoxybenzylidene)-2-(benzo[d]oxazol-2-ylthio)acetohydrazide], the melting point lay within 150 to 153 °C. Moreover, the IC50 in data set [1] was 9.37 ± 0.7 µM. Further, the IC50 in data set [2] was determined as 11.1 ± 0.9 µM. Also, the IC50 in data set [3] is 4.93 ± 0.2 µM. Moreover, in data set [4], the IC50 came to 12.9 ± 0.9 µM. In addition, the IC50 in data set [5] fell in the range of 2.14 to 12.9 µM.

`O=C(CSc1nc2ccccc2o1)NN=Cc1cccs1` (mixture of isomers) [Compound 6a, (E/Z)-2-(benzo[d]oxazol-2-ylthio)-N′-((thiophen-2-yl)methylene)acetohydrazide] came in with a melting point of 218 to 221 °C. Moreover, in data set [1], the 50% inhibitory concentration (IC50) worked out at 26.4 ± 1.8 µM. For the same compound, the IC50 in data set [2] is 42.9 ± 2.8 µM. Also, in data set [3], the IC50 amounted to 30.8 ± 2.2 µM. The IC50 in data set [4] is 46.4 ± 2.7 µM.

As to `O=C(CSc1nc2ccccc2o1)NN=C1C(=O)Nc2ccccc21` [Compound 5a, (E/Z)-2-(benzo[d]oxazol-2-ylthio)-N′-(2-oxoindolin-3-ylidene)acetohydrazide], the melting point was 223 to 225 °C. The IC50 in data set [1] is 18 ± 1.3 µM. Also, in data set [2], the IC50 is 23.5 ± 1.8 µM. In addition, the IC50 in data set [3] was 14.6 ± 1.2 µM. The IC50 in data set [4] was 28.9 ± 2 µM.

`Cc1ccc2c(c1)C(=NNC(=O)CSc1nc3ccccc3o1)C(=O)N2` [Compound 5b, (E/Z)-2-(benzo[d]oxazol-2-ylthio)-N′-(5-methyl-2-oxoindolin-3-ylidene)acetohydrazide] had a melting point of 230 to 233 °C. Also, the IC50 in data set [1] was determined as 41.7 ± 2.4 µM. Also, the IC50 in data set [2] stood at 27.4 ± 2 µM. Besides, the IC50 in data set [3] came to 36.2 ± 2.4 µM. The IC50 in data set [4] turned out to be 31.5 ± 2.3 µM.

In turn, `O=C(CSc1nc2ccccc2o1)NN=C1C(=O)Nc2ccc([N+](=O)[O-])cc21` [Compound 5c, (E/Z)-2-(benzo[d]oxazol-2-ylthio)-N′-(5-nitro-2-oxoindolin-3-ylidene)acetohydrazide] showed a melting point of 165 to 167 °C. The IC50 in data set [1] is 56.2 ± 2.9 µM. Further, the half-maximal inhibitory concentration (IC50) in data set [2] was determined as 48.3 ± 2.8 µM. Moreover, the IC50 in data set [3] worked out at 62.4 ± 3.1 µM. In data set [4], the 50% inhibitory concentration (IC50) was 50.6 ± 2.9 µM.

On to `COc1ccc2c(c1)C(=NNC(=O)CSc1nc3ccccc3o1)C(=O)N2` [Compound 5d, (E/Z)-2-(benzo[d]oxazol-2-ylthio)-N′-(5-methoxy-2-oxoindolin-3-ylidene)acetohydrazide], for which the melting point was in the range of 145 to 147 °C. In addition, the IC50 in data set [1] is 10.5 ± 0.9 µM. Also, in data set [2], the IC50 stood at 7.58 ± 0.6 µM. Moreover, the IC50 in data set [3] was found to be 8.44 ± 0.6 µM. In addition, in data set [4], the IC50 amounted to 6.27 ± 0.7 µM. Moreover, the IC50 in data set [5] fell in the range of 2.14 to 12.9 µM.

As for `O=C(CSc1nc2ccccc2o1)NN=C1C(=O)Nc2ccc(Cl)cc21` [Compound 5e, (E/Z)-2-(benzo[d]oxazol-2-ylthio)-N′-(5-chloro-2-oxoindolin-3-ylidene)acetohydrazide], the melting point is 264 to 267 °C. In addition, the IC50 in data set [1] came out at 45.2 ± 2.7 µM. In data set [2], the IC50 was determined as 53 ± 3.1 µM. The concentration for half-maximal inhibition (IC50) in data set [3] is 51.5 ± 2.8 µM. Further, in data set [4], the IC50 turned out to be 58.4 ± 3.2 µM.

Consider `O=C(CSc1nc2ccccc2o1)NN=C1C(=O)Nc2ccc(F)cc21` [Compound 5f, (E/Z)-2-(benzo[d]oxazol-2-ylthio)-N′-(5-fluoro-2-oxoindolin-3-ylidene)acetohydrazide], for which the melting point lay in the range of 225 to 227 °C. Moreover, the IC50 in data set [1] amounted to 63.7 ± 3.2 µM. The concentration for half-maximal inhibition (IC50) in data set [2] is 70.3 ± 3.3 µM. The IC50 in data set [3] was 68.1 ± 3.5 µM. Also, the IC50 in data set [4] turned out to be 59.2 ± 3.1 µM.
